The text below walks through data of US20060078535A1, “Anticancer compounds and methods” (The Regents of the University of Michigan, priority 2004, published 2006).

Assay [1] relates to DU-145 metastatic prostate cancer cells. Kind of assay: Invasion of fibronectin-depleted Matrigel by DU-145 cells. It counts as cell-based, human. The settings on record: 0.5 μl/ml peptide added to gelatin-panned Matrigel. As for the experimental part: This example describes a purification approach for removal of plasma fibronectin (and/or cellular fibronectin) from a substrate (Matrigel). In this example, removal was attempted by successive panning on gelatin. Eight wells of 24-well plate were coated with a 2% gelatin solution (the gelatin was obtained from Becton Dickinson Labware, Catalog #11868). The wells were filled with the gelatin solution which had been heated to 50° C. and incubated for 3 minutes. Then the solution was removed and the wells were allowed to air dry. Following drying, the wells were thoroughly rinsed with ddH2O followed by two rinses with PBS. The plates were again allowed to dry; thereafter they were stored at −20° C. until use. Matrigel was thawed on ice and then added to one of the wells of a gelatin-coated plate (between 800 μl and 1 ml of Matrigel was added to a well of a 24-well plate). The plate was placed in a bucket of ice in a […] room on an orbital shaker where the Matrigel was incubated in the well for two hours (although overnight incubation can be used). Following the incubation, the Matrigel was moved from the first well to a second well and then incubated for two hours under the same conditions. This process was repeated until the Matrigel had been incubated on all eight wells of the gelatin-coated plate.
Following the depletion of the Matrigel, it was collected in Eppendorf tubes. […]

The test system of assay [2] is SUM-52 PE breast cancer cells. Kind of assay: SU-ECM invasion assay, SUM-52 PE breast cancer cells. It counts as cell-based, human. The note with it: SUM-52 cells. As for the experimental part: Adult Strongylocentrotus purpuratus sea urchins were obtained from Pacific BioMarine, and their embryos were cultured to the early pluteus stage in artificial sea water at 15° C. SU-ECM were prepared from them by treatment with nonionic detergent and strerilized by dilution in the appropriate media.
Cells were harvested by rinsing in Hanks' balanced salt solution, followed by brief treatment with 0.25% trypsin, 0.02% EDTA, and pelleting and resuspension in the appropriate medium with or without 5% FCS at a density of about 50,000 cells per ml. […]
Invasion assays were coded and scored blindly by microscopic examination under phase contrast at 200- and 400-fold magnification. Each cell contacting an SU-ECM was scored for its position relative to the exterior or interior surfaces. […] The minimum viability of the cells in each assay was always ascertained at the time of assay by determining the fraction of spread, adherent cells on the bottom of each well scored.
An invasion frequency is defined as the fraction of cells in contact with basement membranes which were located in their interiors at the time of assay. […] Invasion frequencies were determined multiple times for each cell type assayed. For each type of cell assayed the mean and standard deviation of the invasion frequencies were calculated. […]

Pro-His-Ser-Arg-Asn (PHSRN): in assay [1], the “DU-145 invasiveness on depleted Matrigel” value is recorded as “sufficient to restore the full DU-145 invasiveness”. In addition, the “induction of invasion of SU-ECM” value in assay [2] was “induced to invade the SU-ECM substrate”.
